Results from patent US20220144850A1, “INDOLO HEPTAMYL OXIME ANALOGUE AS PARP INHIBITOR” (Chia Tai Tianqing Pharmaceutical Group Co., Ltd., priority 2019, published 2022).
Read-outs that look alike come from different tables or passages of the source.

Assays:
PARylation = PARylation inhibition in Lovo cells (H2O2 stimulated, anti-PAR antibody); format: cell-based; conditions: Homo sapiens, 25 mM H2O2
Method: Experimental Example 4: Anti-Proliferation Experiment on PARylation
Experimental materials: test compounds; F12K medium; Lovo cells; Anti-Poly (ADP-ribose) mouse monoclonal antibody; FITC-labeled goat anti-mouse IgG; hydrogen peroxide; DAPI; PBS; methanol; acetone; Tween-20; skimmed milk powder; Envision multi-marker analyzer.
Day one: Lovo cells were plated on a plate at 60,000 cells/well, and then incubated overnight at 37° C./5% CO2.
Day two: reagents were prepared: • 1. Washing solution: Tween-20 was added to 1-fold PBS, and the final concentration of Tween-20 was 0.05%. • 2. Blocking solution: skimmed milk powder was added to the washing solution, and the final concentration of skimmed milk powder was 5%. • 3. Cell stationary solution: methanol and acetone were mixed in a ratio of 7:3.
Preparation of test compounds: compound intermediate plate 1: compounds were diluted to final concentrations of 10 μM to 0.13 nM with DMSO and PBS, and the concentration of DMSO was 1%. Compound intermediate plate 2: compounds were diluted to final concentrations of 10 μM to 0.13 nM with DMSO and PBS containing 50 mM hydrogen peroxide, and the concentration of DMSO was 1%.
1. Cell supernatant was removed, and compound was transferred from the compound intermediate plate 1 to the cell plate at 40 μL per well, and the mixture was incubated at 37° C. for 30 min.
Compound wells: compound, DMSO 1%;
Negative and positive controls: 1% DMSO added;
Blank controls: cell-free wells, PBS added.
2. After the incubation was completed, compound was transferred from the compound intermediate plate 2 to the cell plate at 40 μL per well, and the final concentration of H2O2 was 25 mM.
Compound wells: compound+25 mM H2O2
Positive and negative controls: 1% DMSO+25 mM H2O2
Blank controls: cell-free wells, PBS added
4. After the incubation was completed, the cell plate was washed once with PBS pre-cooled on ice and added with 100 μL of pre-cooled cell stationary solution per well. After the cell plate was left to stand at −20° C. for 10 min, the cell stationary solution was shaken off. 5. After being air-dried, the cell plate was washed with PBS at 200 μL per well, and then the PBS was discarded. 6. The cell plate was added with blocking solution at 100 μL per well and incubated at 25° C. for 30 min, after which the blocking solution was shaken off. 7. Anti-PAR antibody which was diluted in blocking solution at a ratio of 1:50, was added to the cell plate at 25 μL per well, and then the mixture was incubated at 25° C. for 60 min.
Negative control wells: blocking solution added at 25 μL/well
Blank control wells: blocking solution added at 25 μL/well
8. […] After removal of the liquid, corresponding fluorescence values were read on Envision: FITC: 480 nm and 530 nm; DAPI: 360 nm and 460 nm. […]

[1] = Plasma protein binding rate, human plasma (equilibrium dialysis); format: in vitro ADME; conditions: dialysis 4 h at 37° C.
Method: Experimental Example 5: Study on Plasma Protein Binding Rate
The protein binding rates of the compounds disclosed herein in plasma of human, CD-1 mice and SD rats were determined. 796 μL of blank plasma was taken from human, CD-1 mice and SD rats, and added with 4 μL of test compound working solution (400. μM) or warfarin working solution (400 μM) to achieve a final concentration of 2 μM of both the test compound and the warfarin in the plasma sample. The samples were mixed well. The final concentration of organic phase DMSO was 0.5%; 50 μL of test compound and warfarin plasma sample was pipetted into a sample receiving plate (three parallels), and a corresponding volume of blank plasma or buffer was immediately added such that the final volume of each sample well was 100 μL. The volume ratio of plasma to dialysis buffer was 1:1, and 400 μL of stop solution was added to these samples, which were used as TO samples for determination of recovery rate and stability. The TO samples were stored at 2-8° C. for subsequent treatment with other dialyzed samples; 150 μL of the test compound and warfarin plasma sample was added to a drug delivery end of each dialysis well, and 150 μL of blank dialysis buffer was added to a corresponding receiving end of the dialysis well. The dialysis plate was then sealed with a gas permeable membrane and placed in a humid, 5% CO2 incubator and incubated at 37° C. for 4 h while shaking at about 100 rpm. After the dialysis was completed, 50 μL of the dialyzed buffer sample and dialyzed plasma sample were pipetted to a new sample receiving plate. A corresponding volume of corresponding blank plasma or buffer was added to the samples such that the final volume of each sample well was 100 μL, and the volume ratio of plasma to dialysis buffer was 1:1. All samples were subjected to LC/MS analysis after protein precipitation, and the protein binding rates and the recovery rates were calculated by the following formulas: protein unbinding rate (%)=100×drug concentration passing through dialysis membrane/drug concentration not passing through dialysate; protein binding rate (%)=100−protein unbinding rate (%); recovery rate (%)=100×(drug concentration passing through dialysis membrane+drug concentration not passing through dialysate)/total drug concentration before dialysis.

[2] = Single-dose pharmacokinetic study in mice; format: in vivo; conditions: male C57BL/6 mice; for Maximum concentration / bioavailability / clearance / half-life / Vd: IV: 1 mg/kg PO: 5 mg/kg; for bioavailability / clearance / half-life / Vd / AUC(0-t): mouse, plasma; for Vd: read-out: Apparent volume of distribution
Source text: Experimental Example 8: Single-Dose Pharmacokinetic Study in Mice
Experimental objective: to evaluate the pharmacokinetic behavior by using male C57BL/6 mice as test animals and determining the drug concentrations of the compounds in the plasma, liver and cerebrospinal fluid after single-dose administration.
Experimental method: healthy adult male C57BL/6 mice were selected for intragastric administration. A candidate compound was mixed with an appropriate amount of 10% DMSO/90% (20% hydroxypropyl-β-cyclodextrin), vortexed and sonicated to prepare a 0.5 mg/mL clear solution for later use. After the mice were administered intravenously at 1 mg/kg and orally at 5 mg/kg, whole blood was collected at certain time points, and plasma was separated, and liver and cerebrospinal fluid were collected. After pretreatment of the samples, the drug concentration was measured by LC-MS/MS, and pharmacokinetic parameters were calculated using Phoenix WinNonlin software.

[3] = intravenous 1 mg/kg, read-out: AUC0-last (intravenous injection)
[4] = oral 5 mg/kg, read-out: AUC0-last (oral)

Row | SMILES | IC50 (PARylation) | fraction unbound at 4 h, 2 μM [1] | Maximum concentration [2] | bioavailability [2] | clearance [2] | half-life [2] | Vd [2] | AUC(0-t) [2, 3] | AUC(0-t) [2, 4]
1 | O=C1NOCc2c(-c3ccc(C4CCCN4)cc3)[nH]c3cc(F)cc1c23 (single isomer, unassigned) [Example 24_A] | 23 nM | 0.073 | 433 nM | 21.2% | 34.9 mL/min/kg | 2.03 h | 4.21 L/kg | 1.3 µM·h | 1.38 µM·h
2 | CC1(c2ccc(-c3[nH]c4cccc5c4c3CONC5=O)cc2)CCCN1 (stereo not drawn) [Example 6_A] | 19 nM | 0.181 | – | – | – | – | – | – | –
3 | CC1(c2ccc(-c3[nH]c4cc(F)cc5c4c3CONC5=O)cc2)CCCN1 (stereo not drawn) [Example 25_A] | – | 0.149 | 240 nM | 24.8% | 41 mL/min/kg | 3.02 h | 9.44 L/kg | 0.958 µM·h | 1.19 µM·h

Further compounds by falling IC50 (PARylation), results first:

Row | IC50 (PARylation) | fraction unbound at 4 h, 2 μM [1] | Maximum concentration [2] | bioavailability [2] | clearance [2] | half-life [2] | Vd [2] | AUC(0-t) [2, 3] | AUC(0-t) [2, 4] | SMILES
4 | 27 nM | 0.235 | – | – | – | – | – | – | – | O=C1NOCc2c(-c3ccc(C4CCCN4)c(F)c3)[nH]c3cccc1c23 (stereo not drawn) [Example 11_A]
5 | 25 nM | 0.057 | 285 nM | 37.9% | 60.7 mL/min/kg | 2.15 h | 8.22 L/kg | 0.679 µM·h | 1.29 µM·h | CC1(c2ccc(-c3[nH]c4cc(F)cc5c4c3CONC5=O)cc2F)CCCN1 (single isomer, unassigned) [Example 26_A]
